≈ marks a conversion by molar mass, not a printed value.

In one series the test system is C. albicans (ATCC 24433). Kind of series: Anticandidal activity, EUCAST EDef 7.1 broth dilution with resazurin. It is filed as cell-based. The note with it: Candida albicans, ATCC24433, RPMI pH 7, 24 h. As to the method: (§1) Synthesized compounds (3a–3o) were evaluated for anticandidal activity against C. albicans (ATCC 24433), C. krusei (ATCC 6258), C. parapsilosis (ATCC 22019), and C. glabrata (ATCC 90030). MIC50 values were determined via fluorometric measurements, using resazurin solution [24, 25]. Ketoconazole and fluconazole were used as a standard drug in the activity test.
(§2) Microbiological studies were performed according to the EUCAST definitive (EDef 7.1) method for C. albicans (ATCC 24433), C. krusei (ATCC 6258), C. parapsilosis (ATCC 22019), and C. glabrata (ATCC 90030). Fluconazole and ketoconazole were used as control drugs. Two MIC readings were carried out for each chemical agent. The yeasts were maintained in RPMI after overnight incubation at 37 °C. The inocula of test microorganisms was adjusted to match the turbidity of a MacFarland 0.5 standard tube as determined with a spectrophotometer, and the final inoculum size was 0.5–2.5 × 10^5 cfu/mL for the antifungal assay. Testing was carried out in RPMI at pH = 7, and the two-fold serial dilutions technique was applied. The last well on the microplates containing only inoculated broth was kept as a control, and the last well with no growth of microorganism was recorded to represent the MIC50 expressed in μg/mL. For the antifungal assays, the compounds were dissolved in DMSO. Further dilutions of the compounds and standard drugs in the test medium were prepared at the required quantities of 800, 400, 200, 100, 50, 25, 12.5, 6.25, 3.125, 1.5625, and 0.78 μg/mL concentrations RPMI. The completed plates were incubated for 24 h. At the end of the incubation, resazurin (20 µg/mL) was added into each well to control the growth in the wells. Completed plates were incubated for 2 h. MIC50 values were determined using a microplate reader at […].
A general note: Broth dilution looks for growth in wells or tubes with falling amounts of substance.

The next series concerns C. glabrata (ATCC 90030). The description is as above. It is filed as cell-based. The note with it: Nakaseomyces glabratus, ATCC90030, RPMI pH 7, 24 h. As to the method: as §1, §2
In another series the test system is C. krusei (ATCC 6258). The series is described as above. It is filed as cell-based. The note with it: Pichia kudriavzevii, ATCC6258, RPMI pH 7, 24 h. The procedure:
as §1, §2

Series [1] relates to C. parapsilosis (ATCC 22019). The series is described as above. It is filed as cell-based. The note with it: Lodderomyces parapsilosis, ATCC22019, RPMI pH 7, 24 h. As to the method:
as §1, §2

Series [2] concerns ergosterol biosynthesis in C. krusei. Briefly: Quantification of ergosterol level by LC-MS-MS. Format: cell-based. The conditions noted are these: Pichia kudriavzevii, mean ± SD, quadruplicate. The source says:
Sterols are neutral lipids of eukaryotic cells, among which ergosterol is the main constituent of fungal membranes. Ergosterol has biological functions such as membrane fluidity, regulation, activity and distribution of integral membrane proteins, and control of the cell cycle. The critical role of sterols in maintenance of cell membranes make ergosterol and its biosynthetic pathway essential for fungal growth, and a primary target for antifungal drugs to treat fungal infections. From this point of view, we performed an LCMSMS (Shimadzu LCMS 8040, Kyoto, Japan) method for quantitative determination of ergosterol content of C. krusei as reported in our recent study. Compounds 3a–3d, displaying the best anticandidal activity and low cytotoxic effect, and reference agents ketoconazole and fluconazole were tested at concentrations of 0.78–3.12 µg/mL. Ergosterol standard (Product No.: 45480, Sigma-Aldrich, Darmstadt, Germany) was used for the quantification of ergostrerol in samples, which were treated with reference agents and Compounds 3a–3d. Ergosterol quantity of the negative control was considered as 100%. Quadruplicate analyses were performed for all concentrations and the obtained data were expressed as mean ± standard deviation (SD) (Table 2).
Extraction of total sterols from C. krusei was performed as recorded by Breivik and Owades. Quantification of ergosterol level in this extract was carried out in accordance with our recently described method.

Series [3] concerns NIH/3T3 mouse embryonic fibroblast cell line. Briefly: MTT cytotoxicity test. It is filed as cell-based. The note with it: NIH3T3, cytotoxic activity, NIH/3T3 cell line. As to the method:
The main cause of failure in all stages of the new drug development process is toxicity. Early identification of toxicities of drug candidates is very important in terms of drug development studies. […] Cytotoxicity of selected compounds (3a–3d), displaying strong anticandidal activity and good predicted pharmacokinetics, was determined against NIH/3T3 mouse embryonic fibroblast cell lines (ATCC CRL1658).
Cytotoxicity was tested using the NIH/3T3 mouse embryonic fibroblast cell line (ATCC® CRL-1658™, London, UK). NIH/3T3 cells were incubated according to the supplier’s recommendations. NIH/3T3 cells were seeded at 1 × 10^4 cells into each well of the 96-well plates. The MTT assay was performed as previously described. The compounds were tested between 800 and 0.78 µg/mL concentrations. Inhibition % was calculated for each concentration according to the formula below, and IC50 values were determined by plotting a dose–response curve of inhibition % versus compound concentrations tested.
% inhibition = 100 − (mean sample × 100/mean solvent).
For orientation: Tetrazolium assays rely on reduction of a dye to a coloured formazan, in cell work by metabolically active cells.

For orientation: MIC50 means the lowest concentration that inhibits either 50% of growth or 50% of the strains tested, depending on the study. Low values mean greater potency, high ones weaker potency. A word on the inhibition: it is the percentage by which the read-out fell short of the control. Low values mean a response near the control, high ones a response far below the control. As usually defined, the IC50 is the concentration needed to halve the response being measured. The melting point is the temperature, or range, at which the solid turns liquid. Regarding `COc1ccc(Sc2ccc(C=CC(=O)c3ccc(-n4ccnc4)cc3)cc2)cc1` [Compound 3d, 1-(4-(1H-Imidazol-1-yl)phenyl)-3-(4-((4-methoxyphenyl)thio)phenyl)prop-2-en-1-one], the melting point fell in the range of 177 to 179 °C. In the series on C. albicans (ATCC 24433), this compound displayed an MIC50 of 1.56 µg/mL (≈ 3.78 µM). The compound further had an MIC50 against C. glabrata (ATCC 90030) of 0.78 µg/mL (≈ 1.89 µM). The same compound returned an MIC50 in the series with C. krusei (ATCC 6258) of 1.56 µg/mL (≈ 3.78 µM). In series [1], the MIC50 was 3.12 µg/mL (≈ 7.58 µM). In series [2], this compound had an inhibition at 0.78 µg/mL of 52.5 ± 1.83%, an inhibition at 1.56 µg/mL of 67.1 ± 2.7% and an inhibition at 3.12 µg/mL of 74.1 ± 2.21%. In series [3], this compound registered an IC50 of 388 ± 20.2 µg/mL (≈ 940 µM).

`Cc1ccc(Oc2ccc(C=CC(=O)c3ccc(-n4ccnc4)cc3)cc2)cc1` [Compound 3a, 1-(4-(1H-Imidazol-1-yl)phenyl)-3-(4-(p-tolyloxy)phenyl)prop-2-en-1-one] yielded a melting point of 146 to 148 °C. Moreover, in the series on C. albicans (ATCC 24433), the MIC50 is 3.12 µg/mL (≈ 8.21 µM). Moreover, the MIC50 against C. glabrata (ATCC 90030) is 3.12 µg/mL (≈ 8.21 µM). Besides, the MIC50 against C. krusei (ATCC 6258) is 0.78 µg/mL (≈ 2.05 µM). This compound also yielded an MIC50 in series [1] of 0.78 µg/mL (≈ 2.05 µM). In series [2], the inhibition at 0.78 µg/mL amounted to 66.2 ± 2.23%, the inhibition at 1.56 µg/mL was 79.5 ± 3.16% and the inhibition at 3.12 µg/mL is 86.5 ± 4.77%. This compound also had an IC50 in series [3] above 500 µg/mL.
